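Protocol summary: plate cells (96-well), add compound at 5 concentrations, incubate 48 h, interpolate endpoints linearly. GI50 is the concentration that inhibits growth by half. TGI: concentration producing complete growth inhibition.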
Columns and labels:
Test in all cases: NCI tumour cell line growth inhibition, 48 h
K-562 leukemia = system: K-562 leukemia
KM12 colon = system: KM12 colon
ACHN renal = system: ACHN renal
SF-539 CNS = system: SF-539 CNS
NCI-H226 lung = system: NCI-H226 lung
NCI-H522 lung = system: NCI-H522 lung
UACC-62 melanoma = system: UACC-62 melanoma
HOP-92 NSCLC = system: HOP-92 NSCLC
BT-549 breast = system: BT-549 breast
NCI-H23 lung = system: NCI-H23 lung
SK-MEL-28 melanoma = system: SK-MEL-28 melanoma
IGROV1 ovarian = system: IGROV1 ovarian
DU-145 prostate = system: DU-145 prostate
SF-268 CNS = system: SF-268 CNS
MOLT-4 leukemia = system: MOLT-4 leukemia
OVCAR-5 ovarian = system: OVCAR-5 ovarian
OVCAR-4 ovarian = system: OVCAR-4 ovarian
U251 CNS = system: U251 CNS
HT29 colon = system: HT29 colon
CAKI-1 renal = system: CAKI-1 renal
A549 NSCLC = system: A549 NSCLC
MDA-MB-231 breast = system: MDA-MB-231 breast
SK-MEL-5 melanoma = system: SK-MEL-5 melanoma
EKVX NSCLC = system: EKVX NSCLC
RXF 393 renal = system: RXF 393 renal
SK-OV-3 ovarian = system: SK-OV-3 ovarian
SF-295 CNS = system: SF-295 CNS
SR leukemia = system: SR leukemia
PC-3 prostate = system: PC-3 prostate
OVCAR-3 ovarian = system: OVCAR-3 ovarian
786-0 renal = system: 786-0 renal
TK-10 renal = system: TK-10 renal
SNB-75 CNS = system: SNB-75 CNS
UACC-257 melanoma = system: UACC-257 melanoma
HS 578T breast = system: HS 578T breast
M14 melanoma = system: M14 melanoma
SK-MEL-2 melanoma = system: SK-MEL-2 melanoma
RPMI-8226 leukemia = system: RPMI-8226 leukemia
HL-60(TB) leukemia = system: HL-60(TB) leukemia
A498 renal = system: A498 renal
SW-620 colon = system: SW-620 colon
HCT-116 colon = system: HCT-116 colon
OVCAR-8 ovarian = system: OVCAR-8 ovarian
SNB-19 CNS = system: SNB-19 CNS
UO-31 renal = system: UO-31 renal
HOP-62 NSCLC = system: HOP-62 NSCLC
T-47D breast = system: T-47D breast
MDA-MB-435 = system: MDA-MB-435
CCRF-CEM leukemia = system: CCRF-CEM leukemia
NCI-H460 lung = system: NCI-H460 lung
SN12C renal = system: SN12C renal
NCI/ADR-RES ovarian = system: NCI/ADR-RES ovarian
LOX IMVI melanoma = system: LOX IMVI melanoma
HCT-15 colon = system: HCT-15 colon
MDA-MB-468 breast = system: MDA-MB-468 breast
MCF7 breast = system: MCF7 breast
HCC-2998 colon = system: HCC-2998 colon
COLO 205 colon = system: COLO 205 colon

COc1sc(/C=N/NC(=O)c2[nH]c3ccc(Br)cc3c2-c2ccccc2)cc1Br was tested, and the GI50 (K-562 leukemia) was 0.508 µM, the TGI (K-562 leukemia) was > 100 µM and the GI50 (KM12 colon) was 3.03 µM. The TGI (KM12 colon) was > 100 µM, the GI50 (ACHN renal) was 3.27 µM and the TGI (ACHN renal) was > 100 µM. For the same compound, the GI50 (SF-539 CNS) was 1.93 µM, the TGI (SF-539 CNS) was 5.51 µM and the GI50 (NCI-H226 lung) was 2.87 µM. For the same compound, the TGI (NCI-H226 lung) was 68.9 µM, the GI50 (NCI-H522 lung) was 0.259 µM and the TGI (NCI-H522 lung) was 0.686 µM. The GI50 (UACC-62 melanoma) was 0.988 µM, the TGI (UACC-62 melanoma) was > 100 µM and the GI50 (HOP-92 NSCLC) was 26.5 µM. The TGI (HOP-92 NSCLC) was > 100 µM, the GI50 (BT-549 breast) was 3.3 µM and the TGI (BT-549 breast) was 8.1 µM. The GI50 (NCI-H23 lung) was 3.67 µM, the TGI (NCI-H23 lung) was > 100 µM and the GI50 (SK-MEL-28 melanoma) was 4.89 µM. The TGI (SK-MEL-28 melanoma) was > 100 µM, the GI50 (IGROV1 ovarian) was 3.5 µM and the TGI (IGROV1 ovarian) was > 100 µM. For the same compound, the GI50 (DU-145 prostate) was 3.36 µM, the TGI (DU-145 prostate) was > 100 µM and the GI50 (SF-268 CNS) was 2.82 µM. The TGI (SF-268 CNS) was > 100 µM, the GI50 (MOLT-4 leukemia) was 3.16 µM and the TGI (MOLT-4 leukemia) was 35.6 µM. The GI50 (OVCAR-5 ovarian) was 3.39 µM, the TGI (OVCAR-5 ovarian) was 69.9 µM and the GI50 (OVCAR-4 ovarian) was 9.78 µM. For the same compound, the TGI (OVCAR-4 ovarian) was > 100 µM, the GI50 (U251 CNS) was 3.65 µM and the TGI (U251 CNS) was > 100 µM. For the same compound, the GI50 (HT29 colon) was 1.16 µM, the TGI (HT29 colon) was > 100 µM and the GI50 (CAKI-1 renal) was 0.892 µM. For the same compound, the TGI (CAKI-1 renal) was > 100 µM, the GI50 (A549 NSCLC) was 3.35 µM and the TGI (A549 NSCLC) was > 100 µM. For the same compound, the GI50 (MDA-MB-231 breast) was 3.21 µM, the TGI (MDA-MB-231 breast) was > 100 µM and the GI50 (SK-MEL-5 melanoma) was 2.12 µM. The TGI (SK-MEL-5 melanoma) was 4.97 µM, the GI50 (EKVX NSCLC) was 5.7 µM and the TGI (EKVX NSCLC) was > 100 µM. The GI50 (RXF 393 renal) was 4.27 µM, the TGI (RXF 393 renal) was > 100 µM and the GI50 (SK-OV-3 ovarian) was 0.365 µM. For the same compound, the TGI (SK-OV-3 ovarian) was > 100 µM, the GI50 (SF-295 CNS) was 2.84 µM and the TGI (SF-295 CNS) was > 100 µM. The GI50 (SR leukemia) was 1.1 µM, the TGI (SR leukemia) was > 100 µM and the GI50 (PC-3 prostate) was 3.14 µM. For the same compound, the TGI (PC-3 prostate) was > 100 µM, the GI50 (OVCAR-3 ovarian) was 1.2 µM and the TGI (OVCAR-3 ovarian) was 12 µM. The GI50 (786-0 renal) was 2.84 µM, the TGI (786-0 renal) was > 100 µM and the GI50 (TK-10 renal) was 88.9 µM. The TGI (TK-10 renal) was > 100 µM, the GI50 (SNB-75 CNS) was 0.359 µM and the TGI (SNB-75 CNS) was 25.3 µM. For the same compound, the GI50 (UACC-257 melanoma) was > 100 µM, the TGI (UACC-257 melanoma) was > 100 µM and the GI50 (HS 578T breast) was 1.92 µM. For the same compound, the TGI (HS 578T breast) was > 100 µM, the GI50 (M14 melanoma) was 2.25 µM and the TGI (M14 melanoma) was > 100 µM. The GI50 (SK-MEL-2 melanoma) was 5.12 µM, the TGI (SK-MEL-2 melanoma) was > 100 µM and the GI50 (RPMI-8226 leukemia) was 1.92 µM. The TGI (RPMI-8226 leukemia) was > 100 µM, the GI50 (HL-60(TB) leukemia) was 1.62 µM and the TGI (HL-60(TB) leukemia) was 5.53 µM. It also gave a GI50 (A498 renal) of 5.44 µM, a TGI (A498 renal) of 39.4 µM and a GI50 (SW-620 colon) of 3.28 µM. For the same compound, the TGI (SW-620 colon) was > 100 µM, the GI50 (HCT-116 colon) was 1.25 µM and the TGI (HCT-116 colon) was > 100 µM. The GI50 (OVCAR-8 ovarian) was 0.499 µM, the TGI (OVCAR-8 ovarian) was > 100 µM and the GI50 (SNB-19 CNS) was 3.98 µM. The TGI (SNB-19 CNS) was > 100 µM, the GI50 (UO-31 renal) was 4.21 µM and the TGI (UO-31 renal) was > 100 µM. The GI50 (HOP-62 NSCLC) was 0.353 µM, the TGI (HOP-62 NSCLC) was 37.5 µM and the GI50 (T-47D breast) was 45.2 µM. For the same compound, the TGI (T-47D breast) was > 100 µM, the GI50 (MDA-MB-435) was 0.324 µM and the TGI (MDA-MB-435) was 1.8 µM. For the same compound, the GI50 (CCRF-CEM leukemia) was 2.11 µM, the TGI (CCRF-CEM leukemia) was > 100 µM and the GI50 (NCI-H460 lung) was 3.03 µM. For the same compound, the TGI (NCI-H460 lung) was 12.4 µM, the GI50 (SN12C renal) was 2.91 µM and the TGI (SN12C renal) was > 100 µM. The GI50 (NCI/ADR-RES ovarian) was 2.12 µM, the TGI (NCI/ADR-RES ovarian) was 6.45 µM and the GI50 (LOX IMVI melanoma) was 2.93 µM. The TGI (LOX IMVI melanoma) was 35.8 µM, the GI50 (HCT-15 colon) was 3.27 µM and the TGI (HCT-15 colon) was > 100 µM. It also gave a GI50 (MDA-MB-468 breast) of 2.18 µM, a TGI (MDA-MB-468 breast) of 6.88 µM and a GI50 (MCF7 breast) of 1.54 µM. For the same compound, the TGI (MCF7 breast) was > 100 µM, the GI50 (HCC-2998 colon) was 3.74 µM and the TGI (HCC-2998 colon) was > 100 µM. For the same compound, the GI50 (COLO 205 colon) was 0.223 µM and the TGI (COLO 205 colon) was 0.516 µM.
